The results in this text go back to the SangsterLogP compilation.

A word on the logP: it is a log measure of how a compound divides between an organic and an aqueous phase. High values mean a more lipophilic compound, low ones a more hydrophilic compound.

Consider `CCCCCNC(=O)N1C(=O)N(C)CC1O` (stereo unspecified), for which the logP was determined as 1.75.
In the case of `CC(C)NC(=O)N1C(=O)N(C)CC1O` (stereo unspecified), the logP worked out at 0.96.
On to `CC(C)CNC(=O)N1C(=O)N(C)CC1O` (stereo unspecified), for which the logP is 1.32.
Next, `CN1CC(O)N(C(=O)NC2CCCCCC2)C1=O` (stereo unspecified): 2.29; `CCCCNC(=O)N1C(=O)N(C)CC1O` (stereo unspecified): 1.38.
The figure for `CCCNC(=O)N1C(=O)N(C)CC1O` (stereo unspecified) is 0.99; for `CCCCCCNC(=O)N1C(=O)N(C)CC1O` (stereo unspecified) it is 2.39.
The figure for `CC1CCC(NC(=O)N2C(=O)N(C)CC2O)CC1` (stereo unspecified) is 2.41; for `CCC(C)NC(=O)N1C(=O)N(C)CC1O` (stereo unspecified) it is 1.28.
The molecule `CN1CC(O)N(C(=O)Nc2ccccc2)C1=O` (stereo unspecified) displayed a logP of 1.44.
`CCCCCCCCNC(=O)N1C(=O)N(C)CC1O` (stereo unspecified) registered a logP of 3.46.
Next, `CC1CCCCC1NC(=O)N1C(=O)N(C)CC1O` (stereo unspecified): 2.2; `CN1CC(O)N(C(=O)NC(C)(C)C)C1=O` (stereo unspecified): 1.38.
The figure for `CN1CC(O)N(C(=O)NC2CCCCC2)C1=O` (stereo unspecified) is 1.87; for `CN1CC(O)N(C(=O)NCCCl)C1=O` (stereo unspecified) it is 0.71; for `CN1CC(O)N(C(=O)NC2CCCC2)C1=O` (stereo unspecified) it is 1.47.
